# Experimental data reported in the METLIN SMRT retention time set (Domingo-Almenara et al. 2019).
# Assay: gradient 5% acetonitrile 3 min, to 50% in 2 min, to 85% in 15 min, held 3 min, 100 µL/min
# Conditions: column: Zorbax Extend-C18 2.1 x 50 mm; eluents: water / acetonitrile, 0.1% formic acid
# Method in brief: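 Over 3 months, pure standards in mixtures of ~100 molecules were run by HPLC coupled to a quadrupole time-of-flight mass spectrometer in positive and negative ionization mode. The column was a Zorbax Extend-C18 (2.1 × 50 mm, 1.8 μm) at 100 μL/min, eluted with water and acetonitrile each holding 0.1% formic acid, with 40 μL dead and 900 μL dwell volumes. Retention time was determined from adduct peaks chosen by software and checked manually.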
row,SMILES,RP-LC retention time [s]
1,CCOc1ccc(-c2cc3c(=O)n(Cc4nc(-c5cccc(OCC)c5)no4)ncn3n2)cc1,1220
2,CCn1c(N2CCCC(C(=O)NCCCOC)C2)cc(=O)n(C)c1=O (configuration not stated),665
3,O=S(=O)(Cc1ccc(F)cc1Cl)N1CCc2nc(-c3ccc(F)cc3)ncc2C1,1100
4,COc1ccccc1N1CCN(C(=O)Cn2ccc3ccc(-c4nnc(C)o4)cc32)CC1,786
5,CN1CCCc2cc(C(CNC(=O)C(=O)NCc3ccc4c(c3)OCO4)N3CCCC3)ccc21 (configuration not stated),709
6,NCCC1CCN(C(=O)Nc2ccccc2)CC1,577
7,O=C(c1ccc2c(c1)OCO2)N1CCN(Cc2nc(C3CC3)cs2)CC1,611
8,Cc1nnc2n1CCC(N(C)C(=O)Cc1cccs1)CC2 (configuration not stated),571
9,COC(=O)c1cc(OCC(=O)Nc2ccc3c(c2)OCO3)c2cc(Cl)ccc2n1,863
10,O=S(=O)(c1cc(-c2nnc(C3CCC3)o2)co1)N1CCc2ccccc2C1,1030
11,COc1ccc(CCN2CC(=O)N(c3cc(C)cc(C)c3)[C@@H]3CS(=O)(=O)C[C@@H]32)cc1,865
12,COc1ccc(NC(=O)C2CC(=O)N(CCc3c[nH]c4ccc(Cl)cc34)C2)c(OC)c1 (configuration not stated),820
13,Cc1nc(-c2cc(S(=O)(=O)N3CCC(C(=O)N4CCc5ccccc54)CC3)c(C)s2)no1,1040
14,Cc1nnc(CNC(=O)CCn2nnc3ccccc3c2=O)o1,566
15,Cc1ccc(NC(=O)C2CCN(S(=O)(=O)c3cc(C(=O)N4CCCC4)n(C)c3)CC2)nc1,647
16,COc1ccc(-c2nc(-c3cccc(-c4ccnn4C)c3)no2)c(OC)c1,1030
17,COc1ccc(OC)c(Nc2c(-c3ccc(C(=O)O)cc3)nc3cnccn23)c1,709
18,COc1ccc(C2CN(S(=O)(=O)c3cccc(C#N)c3)CCN2C)cc1 (configuration not stated),550
19,O=C(c1ccoc1)N1CCC(c2cc(-c3ccc(F)cc3)n[nH]2)CC1,777
20,COc1cc(-c2noc(C3CC(=O)N(c4ccc(C(C)C)cc4)C3)n2)cc(OC)c1OC (configuration not stated),605
21,CN1C(=O)c2cccnc2Sc2cc(C(=O)NCc3ccc(Cl)cc3)ccc21,812
22,Cn1cc2nc(SCc3cc(F)cc(F)c3)n(Cc3ccc(F)cc3)c(=O)c2n1,1070

row,SMILES,RP-LC retention time [s]
1,COc1ccc(OC)c(S(=O)(=O)Cc2nc(-c3ccc(C)cc3)no2)c1,1000
2,COc1ccc(OCc2nc(Cc3nc(-c4cccc(C)c4)oc3C)no2)cc1,1160
3,COC(=O)C1CCN(C(=O)c2csc(Nc3ncccn3)n2)CC1,644
4,COC(=O)c1cccc(NC(=O)Nc2ccc3c(c2)N(C(=O)c2ccccc2)CC3)c1,921
5,CCN1CCN(CCNC(=O)C(C)n2c3ccccc3c3cnn(C)c(=O)c32)CC1 (configuration not stated),544
6,O=C(Nc1ccccc1C(=O)N1CCN(c2ccccc2F)CC1)C1=CSCCO1,927
7,Cc1ncc(Cl)cc1NCc1ccc(C(=O)N[C@@H](CC2CCCC2)C(=O)NC2CC2)s1,837
8,CC(C)OC(=O)Cn1nc(-c2nc(-c3cccc(Cl)c3)no2)ccc1=O,1100
9,Cc1coc2c(C)c3oc(=O)c(CCC(=O)N4CCN(c5ccccn5)CC4)c(C)c3cc12,795
10,COc1ccc(CN2C=C(C(=O)OCc3noc(-c4ccco4)n3)C(C)=NS2(=O)=O)cc1,1000
11,Cc1cc2nc(-c3ccccn3)c(-c3ccccn3)nc2cc1C,797
12,CCn1c(=O)c2ccccc2n(Cc2nc(-c3cc(OC)cc(OC)c3)no2)c1=O,1000
13,O=C(CCn1nnc2cc(-c3noc(-c4ccccc4Br)n3)ccc21)N1CCCC1,954
14,COc1ccc(-c2ncc3c(n2)CCN(C(=O)c2ccc(Br)cc2)C3)cc1,1000
15,Cc1cccc(CNS(=O)(=O)c2cn(CC(C)C)c3ncccc23)c1,993
16,CCCn1ccc2sc(C)c(C(=O)NCc3cc(F)ccc3F)c2c1=O,940
17,Cc1ccc(NC(=O)C2CCN(S(=O)(=O)c3ccc4[nH]c5c(c4c3)CCCCC5)CC2)nc1,897
18,CCOc1ccc(CNC(=O)CN2CC=C(c3cnn(-c4ccccc4)c3)CC2)cc1,722
19,COc1ccccc1-c1nnc(-c2cccc(S(=O)(=O)N3CCOCC3)c2)o1,802
20,COc1ccc(C(=O)N2CCC3(CC2)N=C(c2ccccc2)NO3)c(OC)c1,755
21,CC(Oc1c(Cl)cccc1Cl)C1=NCCN1 (configuration not stated),622
22,CN(C)C(=O)c1n[nH]c2c1CN(C(=O)CCC(=O)c1ccc(F)cc1)CC2,653

row,SMILES,RP-LC retention time [s]
1,Cc1ccc(-n2ccc(=O)c(-c3nc(-c4cccc(Br)c4)no3)n2)cc1,1030
2,CC(=O)N1CCC(C(=O)NC2CCCN(c3cc(-c4ccc(Cl)cc4)[nH]n3)C2)CC1 (configuration not stated),655
3,CCOc1ccc(NC(=O)C2(C)Oc3cccnc3NC2=O)cc1 (configuration not stated),740
4,Cc1ccc(C(=O)N2CCC3(CC2)c2nccn2-c2ccccc2CN3CC(C)C)cc1F,786
5,COCCNC(=O)CN1c2ccccc2NC2=C(C(=O)CC(C)(C)C2)C1c1ccc(F)cc1 (configuration not stated),752
6,CCc1nc2cc(N3CCC(C(=O)NCc4ccc(F)cc4F)CC3)cnc2nc1CC,852
7,O=C(NCc1ccccc1Br)c1cn2nc(Cl)ccc2n1,894
8,CCN(CC)CCNC(=O)CN1C(=O)C2CCCCN2c2ccc(S(=O)(=O)N3CCCC3)cc21 (configuration not stated),633
9,COCC(=O)N1CCN(c2nc(CN3CCC(C)CC3)cs2)CC1,570
10,CN(CCc1noc(C2CN(Cc3c(F)cccc3Cl)C2)n1)S(C)(=O)=O,594
11,Cc1ccc(CNC(=O)C2(C)Cn3nc(C(=O)N4CCOCC4)cc3C(=O)N2C)cc1 (configuration not stated),662
12,COc1cccc(-c2ccc(=O)n(Cc3nc(-c4cccc(Cl)c4)no3)n2)c1,1080
13,O=S(=O)(c1cccc2cccnc12)N1CC[C@@H]2COCCN(Cc3ccccc3)[C@@H]2C1,664
14,Cc1ccc(CNC(=O)CCc2c(C)nn(-c3cc(N4CCCC4)ncn3)c2C)o1,745
15,Cc1cc(-c2nnc(-c3ccc(F)cc3)o2)c(C)n1CC(=O)NCc1cccnc1,637
16,COC(=O)C1=CN(c2ccccc2OC)c2ccccc2S1(=O)=O,824
17,COc1ccc(CCNC(=O)c2cc(C3CC3)[nH]n2)cc1OC,690
18,CCOc1ccc(N2C(=O)C3N=NN(Cc4nc(-c5ccccc5C)no4)C3C2=O)cc1 (configuration not stated),1040
19,CCc1cccc(C)c1Nc1c(-c2ccc(OC)c(OC)c2)nc2cnccn12,805
20,COc1cc(N2C=C(C#N)S(=O)(=O)c3ccc(C)cc32)cc(OC)c1OC,887
21,N#Cc1ccc(-c2nc(-c3ccc4c(c3)ncn4CCN3CCOCC3)no2)cc1,624
22,Clc1ccccc1-c1nc(-c2cccc(-c3ccn[nH]3)c2)no1,1040

row,SMILES,RP-LC retention time [s]
1,O=C(Cc1cc(-c2ccc3c(c2)OCO3)on1)NCc1cccnc1,573
2,CCCN1CCN(CCCNC(=O)c2ccc3c(c2)N(C)C(=O)C2CCCCN32)CC1 (configuration not stated),597
3,O=C(NCc1c[nH]c2ncccc12)C1CCC1,558
4,Cc1csc(NC(=O)C2CCN(S(=O)(=O)c3ccc4c(c3)sc(=O)n4C)CC2)n1,782
5,Cc1ccc(N2C=C(C(=O)N3CCOCC3)S(=O)(=O)c3ccc(F)cc32)cc1F,822
6,O=C(Cn1c(=O)c2cccn2c2ccc(F)cc21)NCCc1c[nH]c2ccccc12,834
7,O=C(CCS(=O)(=O)c1ccccc1)Nc1cc(-c2ccccc2)nn1CCO,695
8,O=C(Cn1c(=O)oc2ccccc21)N1CCC(c2noc(-c3cccnc3)n2)C1 (configuration not stated),702
9,CCOC(=O)C1=C(CN2CCN(c3ccccn3)CC2)NC(=O)NC1c1ccc(Cl)cc1 (configuration not stated),643
10,COc1cccc(-n2c(N3CCCC(C(=O)NCC4CC4)C3)nc3ccsc3c2=O)c1 (configuration not stated),771
11,Cc1nn(-c2nc(-c3ccc(F)cc3)cs2)c(C)c1CC(=O)Nc1cccc(C(F)(F)F)c1,1280
12,Cc1ccc(-c2noc(Cc3nnc(-c4cccc(F)c4)o3)n2)cc1,1070
13,CCOC(=O)c1c(N)n(Cc2ccccc2)c2nc3ccccc3nc12,739
14,Cc1ccc(S(=O)(=O)NC(C)c2nc(-c3ccc(NS(C)(=O)=O)cc3)no2)cc1 (configuration not stated),817
15,COc1ccc(-c2noc(C3CCCN3C(=O)Nc3cc(C)ccc3OC)n2)cc1 (configuration not stated),859
16,CCOc1ccc2c(c1)SC(CC(=O)Nc1ccccc1[N+](=O)[O-])C(=O)N2 (configuration not stated),822
17,CC1=C(C(=O)Nc2ccc(F)cc2C)C2(CCCCCC2)OC1=O,972
18,O=C(c1ccoc1)N1CC(n2cc(COCc3ccccc3)nn2)C1,734
19,COC[C@@H]1CN(Cc2cc(C)nn2C)C[C@H]1c1ccccn1,559
20,O=C(Nc1cnc(-c2cccc(Cl)c2)nc1)C1CCC1,1020
21,Cc1nc(C)c(C(=O)N2CCC3(CC2)CCC(O)(CN(C)C)CC3)s1,555
